Assay results published in patent US20210251963A1, “UREA DERIVATIVES FOR USE IN THE TREATMENT OF SUBJECTS WITH ELEVATED EXPRESSION AND/OR ACTIVITY OF SRPK1” (Scandion Oncology A/S, priority 2018, published 2021).
Like-named read-outs stand apart in the source and are kept apart here.

Experiments:
[1] = target: T1, SRPK1 (Homo sapiens, UniProt Q96SB4); assay: Premier Screen kinase activity screening and IC50 determination (33P ATP filter binding); type: biochemical
T1 construct: purchased MRC in Dundee (Premier Screen service)
Text: (§1) The kinase activity screening was done at MRC in Dundee. The screen was a so-called “Premier Screen” with 140 kinases. More specific information can be found here: http://www.kinase-screen.mrc.ac.uk/services/premier-screen
(§2) The method is based on a radioactive filter binding assay using 33P ATP (Hastie, et al 2006. Nat Protoc. 2006; 1(2):968-71; Bain, et al 2007. Biochem J. 2007 Dec. 15; 408(3):297-315). This method is sensitive, accurate and provides a direct measure of kinase enzyme activity. A concentration of 10 μM SCO-101 was used.
(§3) In the table below, the data is portrayed as the mean percentage activity of assay duplicates and a standard deviation. These percentage activities were calculated in comparison to DMSO controls. 10 μM SCO-101 reduced the activity of SRPK1 to 6% of the DMSO control.
This experiment was technically carried out as described in example 1, also done by MRC in Dundee. However, in this experiment 10 different concentrations of SCO-101 was applied in order to determine the half maximal inhibitory concentration (IC50). The following concentrations (in nM) were applied: 1.5, 5, 15, 50, 150, 500, 1500, 5000, […] and 50000. This experiment generated a dose response curve (FIG. 1), which confirmed the SCO-101 mediated inhibition of SRPK1. The IC50 value was determined to be 3.0 μM (Table 2).

[2] = target: AMPK (hum); assay: Premier Screen kinase activity screening (33P ATP filter binding); type: biochemical, human; conditions: 10 μM SCO-101, mean of assay duplicates
Text: as §1, §2, §3

[3] = target: T2, TTBK2 (Homo sapiens, UniProt Q6IQ55); assay: as above; type: biochemical; conditions: 10 μM SCO-101, mean of assay duplicates, read-out: Kinase activity (percentage of DMSO control)
T2 construct: purchased MRC Dundee, Premier Screen (contract screening service)
Outline: (§4)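 33P-ATP filter-binding read-out; compound at 10 μM, duplicates. Result given as mean % activity vs DMSO control ± SD.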

[4] = target: T3, EPH-B4 (Homo sapiens, UniProt P54760); assay: as above; type: biochemical; conditions: 10 μM SCO-101, mean of assay duplicates, read-out: Kinase activity (percentage of DMSO control)
T3 construct: MRC in Dundee (screening service)
Outline: as §4

T1 sequence (Q96SB4 whole entry): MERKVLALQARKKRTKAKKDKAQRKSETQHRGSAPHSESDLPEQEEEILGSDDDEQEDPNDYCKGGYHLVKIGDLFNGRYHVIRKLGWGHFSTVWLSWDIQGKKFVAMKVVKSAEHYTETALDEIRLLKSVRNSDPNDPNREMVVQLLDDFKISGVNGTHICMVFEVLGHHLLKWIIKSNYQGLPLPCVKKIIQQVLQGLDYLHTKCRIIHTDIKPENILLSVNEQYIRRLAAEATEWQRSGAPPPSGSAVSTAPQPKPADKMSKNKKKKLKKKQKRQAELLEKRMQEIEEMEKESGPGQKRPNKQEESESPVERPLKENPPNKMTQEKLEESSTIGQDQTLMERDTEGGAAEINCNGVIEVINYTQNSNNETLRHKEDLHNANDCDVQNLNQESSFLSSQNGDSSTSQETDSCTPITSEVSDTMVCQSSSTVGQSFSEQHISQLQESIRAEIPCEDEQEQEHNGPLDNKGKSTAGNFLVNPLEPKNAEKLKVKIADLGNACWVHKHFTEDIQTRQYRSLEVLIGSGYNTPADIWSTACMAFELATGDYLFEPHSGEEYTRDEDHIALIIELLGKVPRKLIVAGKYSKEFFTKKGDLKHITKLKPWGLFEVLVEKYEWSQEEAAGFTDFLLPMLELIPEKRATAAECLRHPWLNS
T3 sequence (P54760 16-987, species assumed): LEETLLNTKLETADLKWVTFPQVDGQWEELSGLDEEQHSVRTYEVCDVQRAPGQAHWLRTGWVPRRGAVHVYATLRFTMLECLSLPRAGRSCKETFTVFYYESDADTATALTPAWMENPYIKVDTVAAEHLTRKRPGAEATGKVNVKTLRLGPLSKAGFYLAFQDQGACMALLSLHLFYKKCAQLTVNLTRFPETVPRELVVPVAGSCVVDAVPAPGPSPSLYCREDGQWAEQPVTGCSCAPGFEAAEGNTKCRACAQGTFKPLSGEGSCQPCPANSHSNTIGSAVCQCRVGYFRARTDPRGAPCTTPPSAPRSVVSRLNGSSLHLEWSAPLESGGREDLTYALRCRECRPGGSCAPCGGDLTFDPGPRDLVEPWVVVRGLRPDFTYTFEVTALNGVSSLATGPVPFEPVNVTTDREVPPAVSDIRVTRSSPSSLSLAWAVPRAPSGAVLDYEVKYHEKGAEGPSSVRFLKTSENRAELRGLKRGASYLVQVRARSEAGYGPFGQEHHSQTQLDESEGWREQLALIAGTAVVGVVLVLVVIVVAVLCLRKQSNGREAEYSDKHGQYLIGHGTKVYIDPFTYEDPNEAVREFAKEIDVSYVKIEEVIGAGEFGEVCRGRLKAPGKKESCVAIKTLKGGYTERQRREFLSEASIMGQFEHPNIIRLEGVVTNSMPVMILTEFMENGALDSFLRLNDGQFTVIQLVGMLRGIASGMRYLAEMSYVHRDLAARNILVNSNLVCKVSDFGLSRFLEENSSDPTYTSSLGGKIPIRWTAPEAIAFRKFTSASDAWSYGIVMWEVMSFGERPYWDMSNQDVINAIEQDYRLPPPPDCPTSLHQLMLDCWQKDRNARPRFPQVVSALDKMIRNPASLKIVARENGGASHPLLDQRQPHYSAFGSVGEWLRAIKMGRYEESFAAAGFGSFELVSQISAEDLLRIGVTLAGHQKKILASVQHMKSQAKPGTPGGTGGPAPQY
T2 sequence (Q6IQ55 whole entry, species assumed): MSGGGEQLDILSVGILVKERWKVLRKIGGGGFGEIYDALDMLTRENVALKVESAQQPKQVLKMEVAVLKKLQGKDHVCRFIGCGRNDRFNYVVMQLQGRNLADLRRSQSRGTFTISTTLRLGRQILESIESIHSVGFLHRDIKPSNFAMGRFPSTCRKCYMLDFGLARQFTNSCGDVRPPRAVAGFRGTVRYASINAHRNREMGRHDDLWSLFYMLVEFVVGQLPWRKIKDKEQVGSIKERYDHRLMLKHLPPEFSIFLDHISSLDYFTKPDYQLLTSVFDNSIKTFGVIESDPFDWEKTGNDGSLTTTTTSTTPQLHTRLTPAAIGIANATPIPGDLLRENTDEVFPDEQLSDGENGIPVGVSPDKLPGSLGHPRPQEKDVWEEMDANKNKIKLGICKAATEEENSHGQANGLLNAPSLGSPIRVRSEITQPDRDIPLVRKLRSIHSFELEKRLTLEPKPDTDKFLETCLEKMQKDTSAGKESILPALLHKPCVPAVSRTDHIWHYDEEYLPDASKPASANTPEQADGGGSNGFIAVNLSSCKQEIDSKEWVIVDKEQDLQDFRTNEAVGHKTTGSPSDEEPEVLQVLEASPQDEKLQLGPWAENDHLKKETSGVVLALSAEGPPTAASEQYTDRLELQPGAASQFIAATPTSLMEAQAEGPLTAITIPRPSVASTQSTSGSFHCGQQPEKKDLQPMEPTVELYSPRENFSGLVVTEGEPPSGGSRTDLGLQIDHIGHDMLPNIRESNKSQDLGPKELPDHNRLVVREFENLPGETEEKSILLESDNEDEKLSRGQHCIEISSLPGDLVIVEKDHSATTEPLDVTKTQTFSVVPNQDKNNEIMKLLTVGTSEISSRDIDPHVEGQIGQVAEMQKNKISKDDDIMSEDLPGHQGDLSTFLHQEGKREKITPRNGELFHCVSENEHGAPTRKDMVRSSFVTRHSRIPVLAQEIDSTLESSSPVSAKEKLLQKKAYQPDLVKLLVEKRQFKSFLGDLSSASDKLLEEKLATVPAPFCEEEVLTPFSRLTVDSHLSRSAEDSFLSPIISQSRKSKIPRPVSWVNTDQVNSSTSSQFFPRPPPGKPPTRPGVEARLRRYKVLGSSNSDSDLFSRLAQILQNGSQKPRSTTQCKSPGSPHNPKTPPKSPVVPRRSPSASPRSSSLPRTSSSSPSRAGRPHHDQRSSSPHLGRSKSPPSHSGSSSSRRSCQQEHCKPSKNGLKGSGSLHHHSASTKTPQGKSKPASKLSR

O=C(Nc1cc(C(F)(F)F)cc(C(F)(F)F)c1)Nc1ccc(Br)cc1-c1nnn[nH]1 [SCO-101]
remaining activity at 10 µM ([1]; 10 μM SCO-101, mean of assay duplicates, read-out: Kinase activity (percentage of DMSO control)): 6% | IC50 ([1]; first determination, 10 concentrations, read-out: IC50): 2.9 µM | IC50 ([1]; mean of two determinations, read-out: mean IC50): 3 µM | IC50 ([1]; second determination, 10 concentrations, read-out: IC50): 3 µM | Kinase activity (percentage of DMSO control) [2]: 97 percentage of DMSO control | remaining activity at 10 µM [3]: 109% | remaining activity at 10 µM [4]: 86%
